Results as given in PubChem BioAssay AID248 (DTP/NCI, 2004).
Where “and” joins values, the source holds several entries; their conditions need not be identical. Equal entries are not always repeated. Toxic doses and inconclusive results are not listed. Cut-off read from the data, not from the text of the source: active = T/C of 150% or more; inactive = T/C below 125%.

Test system: L1210 leukemia ip in BDF1 mice, survival T/C
Assay: NCI In Vivo Anticancer Drug Screen. Data for tumor model L1210 Leukemia (intraperitoneal) in B6D2F1 (BDF1) mice
Conditions: endpoint: mean survival time, higher = longer survival
In short: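 Tumor cells were implanted, animals were treated, and survival was followed. The result divides the treated measurement by the vehicle-control measurement.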

[1] = dose: 100.0 mg/kg/injection, schedule: Q01DX009 (ip), vehicle: Klucel (hydroxypropylcellulose) (HPC)
[2] = dose: 100.0 mg/kg/injection, schedule: Q04DX003 (ip), vehicle: saline
[3] = dose: 100.0 mg/kg/injection, schedule: Q04DX002 (ip), vehicle: saline with Tween-80
[4] = dose: 200.0 mg/kg/injection, schedule: Q04DX002 (ip), vehicle: saline with Tween-80
[5] = dose: 100.0 mg/kg/injection, schedule: Q04DX002 (ip), vehicle: Klucel (hydroxypropylcellulose) (HPC)
[6] = dose: 200.0 mg/kg/injection, schedule: Q04DX002 (ip), vehicle: Klucel (hydroxypropylcellulose) (HPC)
[7] = dose: 400.0 mg/kg/injection, schedule: Q04DX002 (ip), vehicle: Klucel (hydroxypropylcellulose) (HPC)
[8] = dose: 100.0 mg/kg/injection, schedule: Q01DX009 (ip), vehicle: saline with Tween-80
[9] = dose: 200.0 mg/kg/injection, schedule: Q01DX009 (ip), vehicle: saline with Tween-80
[10] = dose: 400.0 mg/kg/injection, schedule: Q01DX009 (ip), vehicle: saline with Tween-80
[11] = dose: 100.0 mg/kg/injection, schedule: Q04DX003 (ip), vehicle: Klucel (hydroxypropylcellulose) (HPC)
[12] = dose: 200.0 mg/kg/injection, schedule: Q01DX009 (ip), vehicle: Klucel (hydroxypropylcellulose) (HPC)
[13] = dose: 200.0 mg/kg/injection, schedule: Q04DX003 (ip), vehicle: Klucel (hydroxypropylcellulose) (HPC)
[14] = dose: 400.0 mg/kg/injection, schedule: Q01DX009 (ip), vehicle: Klucel (hydroxypropylcellulose) (HPC)
[15] = dose: 400.0 mg/kg/injection, schedule: Q04DX003 (ip), vehicle: Klucel (hydroxypropylcellulose) (HPC)
[16] = dose: 100.0 mg/kg/injection, schedule: Q01DX001 (ip), vehicle: carboxymethylcellulose (CMC)
[17] = dose: 200.0 mg/kg/injection, schedule: Q01DX001 (ip), vehicle: carboxymethylcellulose (CMC)
[18] = dose: 400.0 mg/kg/injection, schedule: Q01DX001 (ip), vehicle: carboxymethylcellulose (CMC)
[19] = dose: 100.0 mg/kg/injection, schedule: Q01DX001 (ip), vehicle: Klucel (hydroxypropylcellulose) (HPC)
[20] = dose: 200.0 mg/kg/injection, schedule: Q01DX001 (ip), vehicle: Klucel (hydroxypropylcellulose) (HPC)
[21] = dose: 400.0 mg/kg/injection, schedule: Q01DX001 (ip), vehicle: Klucel (hydroxypropylcellulose) (HPC)
[22] = dose: 100.0 mg/kg/injection, schedule: Q01DX001 (ip), vehicle: saline
[23] = dose: 200.0 mg/kg/injection, schedule: Q01DX001 (ip), vehicle: saline
[24] = dose: 100.0 mg/kg/injection, schedule: Q04DX003 (ip), vehicle: saline with Tween-80
[25] = dose: 200.0 mg/kg/injection, schedule: Q04DX003 (ip), vehicle: saline with Tween-80
[26] = dose: 400.0 mg/kg/injection, schedule: Q04DX003 (ip), vehicle: saline with Tween-80

Measured: T/C

COc1cc(OC)cc(C(O)C(C)NC(C)C)c1 (stereo not drawn)
inactive: dose: 6.25 mg/kg/injection, schedule: Q01DX009 (ip), vehicle: Klucel (hydroxypropylcellulose) (HPC) 95 % of control | dose: 12.5 mg/kg/injection, schedule: Q01DX009 (ip), vehicle: Klucel (hydroxypropylcellulose) (HPC) 92 % of control | dose: 12.5 mg/kg/injection, schedule: Q04DX003 (ip), vehicle: saline 108 % of control | dose: 25.0 mg/kg/injection, schedule: Q01DX009 (ip), vehicle: Klucel (hydroxypropylcellulose) (HPC) 92 % of control | dose: 25.0 mg/kg/injection, schedule: Q04DX003 (ip), vehicle: saline 97 % of control | dose: 50.0 mg/kg/injection, schedule: Q01DX009 (ip), vehicle: Klucel (hydroxypropylcellulose) (HPC) 95 % of control | dose: 50.0 mg/kg/injection, schedule: Q04DX003 (ip), vehicle: saline 105 % of control | [1] 101 % of control | [2] 103 % of control

O=C(O)c1ccccc1Br
inactive: [3] 96 % of control | [4] 93 % of control

C1CCC2(CC1)COC1(OC2)OCC2(CCCCC2)CO1
inactive: [5] 97 % of control | [6] 101 % of control | [7] 90 % of control

OC1C2CC3C1C3C2O (stereo not drawn)
inactive: [8] 94 % of control | [9] 94 % of control | [10] 97 % of control

CCC(COC(=O)c1ccc(N)cc1)NC(CC(C)C)CC(C)C (stereo not drawn)
inactive: dose: 75.0 mg/kg/injection, schedule: Q01DX001 (ip), vehicle: carboxymethylcellulose (CMC) 89 % of control | dose: 300.0 mg/kg/injection, schedule: Q01DX001 (ip), vehicle: carboxymethylcellulose (CMC) 91 % of control

Cc1c(N=CN(C)C)c(=O)n(-c2ccccc2)n1C
inactive: [1] 94 % of control | [11] 110 % of control | [12] 93 % of control | [13] 105 % of control | [14] 100 % of control | [15] 107 % of control

[CH3][Sb]1([CH3])([I])[CH2]CC[CH2]1
inactive: [2] 101 % of control | dose: 200.0 mg/kg/injection, schedule: Q04DX003 (ip), vehicle: saline 97 % of control | dose: 400.0 mg/kg/injection, schedule: Q04DX003 (ip), vehicle: saline 101 % of control

COc1ccc(NC(=O)c2ccccc2Cl)cc1
inactive: [1] 97 % of control | [11] 105 % of control | [12] 95 % of control | [13] 97 % of control | [14] 95 % of control | [15] 96 % of control

CCN(CC)CC(=O)NCC(C)(CCN1CCCCC1)c1cccc2ccccc12 (stereo not drawn)
inactive: dose: 25.0 mg/kg/injection, schedule: Q01DX009 (ip), vehicle: saline 91 % of control | dose: 50.0 mg/kg/injection, schedule: Q01DX009 (ip), vehicle: saline 93 % of control | [2] 94 % of control

CC(=O)Nc1ccc(Cc2ccc3[nH]c(=O)cc(C)c3c2)cc1
inactive: [16] 96 % of control | [17] 98 % of control | [18] 101 % of control

O=C(NCc1ccc(Cl)c(Cl)c1)Nc1ccccc1F
inactive: [1] 101 % of control | [5] 102 % of control | [12] 104 % of control | [6] 105 % of control | [14] 101 % of control | [7] 97 % of control

Cc1cc(Br)ccc1NNS(=O)(=O)c1cccc(N)c1
inactive: [19] 98 % of control | [11] 91 % of control | [20] 107 % of control | [13] 97 % of control | [21] 91 % of control | [15] 107 % of control

CCC[CH2][Pb]([CH2]CCC)([CH2]CCC)[O]C(C)=O
inactive: [22] 101 % of control | [23] 95 % of control

N#Cc1ccccc1N=NNc1ccc([N+](=O)[O-])cc1
inactive: dose: 75.0 mg/kg/injection, schedule: Q01DX001 (ip), vehicle: saline 108 % of control | dose: 150.0 mg/kg/injection, schedule: Q01DX001 (ip), vehicle: saline 104 % of control | dose: 300.0 mg/kg/injection, schedule: Q01DX001 (ip), vehicle: saline 98 % of control

CCOC(=O)C(C=Nc1ccc(S(N)(=O)=O)cc1)C(=O)OCC
inactive: [24] 105 % of control | [25] 92 % of control | [26] 92 % of control

CC1(C)COP(Oc2ccccc2)OC1
inactive: [8] 100 % of control | [24] 107 % of control | [9] 97 % of control | [25] 103 % of control | [26] 107 % of control

CCCCCCCCCCCCCCCCNC(=O)c1cc([N+](=O)[O-])ccc1C(=O)O
inactive: [11] 95 % of control | [13] 95 % of control | [15] 97 % of control

COc1ccc(C2=Cc3ccc(OC(C)=O)cc3OC2)cc1
inactive: dose: 50.0 mg/kg/injection, schedule: Q01DX001 (sc), vehicle: steriod suspending solution 101 % of control | dose: 100.0 mg/kg/injection, schedule: Q01DX001 (sc), vehicle: steriod suspending solution 103 % of control | dose: 200.0 mg/kg/injection, schedule: Q01DX001 (sc), vehicle: steriod suspending solution 101 % of control | dose: 400.0 mg/kg/injection, schedule: Q01DX001 (sc), vehicle: steriod suspending solution 95 % of control

COC(=O)c1ccc2c3c(ccc(C(=O)OC)c13)C=C2
inactive: [22] 102 % of control | [23] 94 % of control | dose: 400.0 mg/kg/injection, schedule: Q01DX001 (ip), vehicle: saline 95 % of control

Clc1ccc(Sc2ccc(Br)cc2)cc1
inactive: dose: 50.0 mg/kg/injection, schedule: Q01DX001 (ip), vehicle: carboxymethylcellulose (CMC) 103 % of control | [16] 101 % of control | [17] 103 % of control | [18] 101 % of control

O=C(NC(=S)Nc1cccc(F)c1)c1cccc([N+](=O)[O-])c1
inactive: dose: 100.0 mg/kg/injection, schedule: Q01DX001 (ip), vehicle: saline with Tween-80 98 % of control | [8] 94 % of control and 95 % of control | [3] 101 % of control and 111 % of control | [24] 98 % of control | dose: 200.0 mg/kg/injection, schedule: Q01DX001 (ip), vehicle: saline with Tween-80 93 % of control | [9] 98 % of control and 90 % of control | [4] 92 % of control and 96 % of control | [25] 102 % of control | [10] 92 % of control and 94 % of control | dose: 400.0 mg/kg/injection, schedule: Q04DX002 (ip), vehicle: saline with Tween-80 101 % of control and 103 % of control | [26] 101 % of control

NC(=O)C(C(N)=O)C1CCCCc2ccccc21 (stereo not drawn)
inactive: [16] 90 % of control | [17] 106 % of control | [18] 88 % of control

C=CC[N+](CC=C)(CC=C)CC[N+](CC=C)(CC=C)CC=C
inactive: dose: 6.25 mg/kg/injection, schedule: Q01DX009 (ip), vehicle: water 109 % of control | dose: 12.5 mg/kg/injection, schedule: Q01DX009 (ip), vehicle: water 111 % of control | dose: 25.0 mg/kg/injection, schedule: Q01DX009 (ip), vehicle: water 96 % of control and 90 % of control | dose: 50.0 mg/kg/injection, schedule: Q01DX009 (ip), vehicle: water 106 % of control and 87 % of control and 89 % of control | dose: 100.0 mg/kg/injection, schedule: Q01DX009 (ip), vehicle: water 100 % of control

Clc1cccc(/C=C2\c3cc(Cl)ccc3-c3c(Cl)cc(Cl)cc32)c1
inactive: [19] 96 % of control | [1] 106 % of control | [11] 97 % of control | [20] 93 % of control | [12] 98 % of control | [13] 101 % of control | [21] 93 % of control | [14] 98 % of control | [15] 101 % of control

O=C(c1ccccc1)C1OC(=O)C1c1ccccc1 (stereo not drawn)
inactive: [19] 97 % of control | [11] 101 % of control | [20] 92 % of control | [13] 101 % of control | [21] 103 % of control | [15] 97 % of control
